According to patent US20110195924A1, “Methods of Inhibiting the Interaction Between S100P and the Receptor for Advanced Glycation End-Products” (priority 2008, published 2011):

Experiments:
BxPC-3 tumors = assay: BxPC-3 orthotopic tumor growth and metastasis in scid mice; format: in vivo; details: BxPC-3 model; for lung metastasis, mean: control 5.5×10^8; for tumor burden, difference versus control / tumor burden, mean: end of six weeks; for tumor burden, mean: gemcitabine 125 mg/kg bi-weekly i.p., cromolyn 5 mg/kg daily i.p., control 1.6×10^9
Protocol: FIGS. 4A-4F show the effect of cromolyn on BxPC-3 tumor growth and metastasis in vivo. BxPC-3 cells stably expressing the firefly luciferase gene were injected orthotopically into 4 week old male CB 17 scid mice. […] Mice were divided into four groups of five mice each with an equivalent mean tumor size between groups. […] One group was treated with water (control), one group received gemcitabine bi-weekly (125 mg kg body weight bi-weekly by intraperitoneal injection), one group was administered cromolyn daily (5 mg per kg body weight daily by intraperitoneal injection), and the final group was given the combination of daily cromolyn and bi-weekly gemcitabine. All groups were treated for six weeks. Bioluminescent imaging was done weekly to assess tumor growth. […] Means and 95% confidence intervals are shown. (n=20). Two-tailed two-sample (unpaired) Student's t-tests were used to determine P values. The anti-tumorigenic capability of the drug cromolyn was assessed in 4-week-old male CB 17 scid mice (n=20) carrying orthopic tumors of BxPC-3, MPanc96, and Panc-1 cells stably expressing a Lenti-luc reporter. All mouse experiments were reviewed and approved by the Institutional Animal Care and Use Committee of UT MD Anderson Cancer Center. All mice were maintained in a sterile environment. Cages, bedding, food, and water were all autoclaved. All mice were maintained on a daily 12-hour light/12-hour dark cycle, according to the institutional animal welfare guidelines. BxPC-3, MPanc96, and Pane-1 cells carrying the Lenti-luc reporter gene were grown to 80% confluence, harvested by incubation with trypsin-EDTA, washed twice in PBS, and resuspended to a final concentration of 4.0×10^6 cells/mL. Each mouse (n=20 mice per cell line) was injected (into the pancreas) with cell suspensions (50 μL). Bioluminescent imaging to determine tumor volume was performed 1 week after injection because the tumors became established within this amount of time. This initial tumor volume was used to divide the mice into four groups of five mice each, such that the mean tumor size was equal between groups (FIGS. 4A, 5A, and 6A). To allow enough time to observe differences among treatment groups, the mice were followed for the next 5 weeks. One group of mice was then treated biweekly with a sub-maximal concentration of gemcitabine (125 mg per kg body weight by i.p. injection). A second group was treated with a daily injection of cromolyn (5 mg per kg body weight by i.p. injection). A third group was treated with both bi-weekly gemcitabine and daily cromolyn. The control group was treated daily with vehicle. Treatments were continued for 5 weeks, and the effects on the tumor burden and metastasis were analyzed by weekly bioluminescence imaging (FIGS. 4B, 5B, and 6B). At the end of the experiment the mice were anesthetized with 1.5% isofluorane/air mixture and killed by cervical dislocation. Bioluminescence imaging was conducted using a cryogenically cooled IVIS 100 imaging system coupled to a data acquisition computer running Living Image software (Xenogen Corp., Alameda, Calif.). Before imaging, mice were placed in an acrylic chamber, anesthetized with 1.5% isofluorane/air mixture, and injected i.p. with 15 mg/mL of luciferin potassium salt in PBS at a dose of 150 mg per kg body weight. A digital grey scale image of each mouse was acquired, followed by acquisition and overlay of a pseudocolor image representing the spatial distribution of detected photons emerging from active luciferase within the mouse. Tumor volume was quantified as the sum of all detected photons within the region of the tumor per second. At the end of experiment, the mice were killed, and tumors were surgically removed and weighed. After the primary tumors were removed, cancer cell dissemination and metastasis was visualized using IVIS imaging, and metastatic colonies were counted. Subsequently, tissues were fixed with formaldehyde, and histology was used to verify the accuracy of the bioluminescence data. […]

Panc-1 tumors = assay: Panc-1 orthotopic tumor growth and metastasis in scid mice; format: in vivo
Protocol: FIGS. 6A-6F show the effect of cromolyn on Panc-1 tumor growth and metastasis in vivo. Panc-1 cells stably expressing the firefly luciferase gene were injected orthotopically into 4-week-old male CB 17 scid mice. […] Mice were divided into four groups of five mice each with an equivalent mean tumor size between groups. […] One group was treated with water (control), one group received gemcitabine bi-weekly (125 mg per kg body weight bi-weekly by intraperitoneal injection), one group was administered cromolyn daily (5 mg per kg body weight daily by intraperitoneal injection), and the final group was given the combination of cromolyn and gemcitabine. All groups were treated for six weeks. Bioluminescent imaging was done weekly to assess tumor growth. […] Means and 95% confidence intervals from two independent experiments are shown (n=20). Two-tailed two-sample (unpaired) Student's t-tests were used to determine P values. The anti-tumorigenic capability of the drug cromolyn was assessed in 4-week-old male CB 17 scid mice (n=20) carrying orthopic tumors of BxPC-3, MPanc96, and Panc-1 cells stably expressing a Lenti-luc reporter. All mouse experiments were reviewed and approved by the Institutional Animal Care and Use Committee of UT MD Anderson Cancer Center. All mice were maintained in a sterile environment. Cages, bedding, food, and water were all autoclaved. All mice were maintained on a daily 12-hour light/12-hour dark cycle, according to the institutional animal welfare guidelines. BxPC-3, MPanc96, and Pane-1 cells carrying the Lenti-luc reporter gene were grown to 80% confluence, harvested by incubation with trypsin-EDTA, washed twice in PBS, and resuspended to a final concentration of 4.0×10^6 cells/mL. Each mouse (n=20 mice per cell line) was injected (into the pancreas) with cell suspensions (50 μL). Bioluminescent imaging to determine tumor volume was performed 1 week after injection because the tumors became established within this amount of time. This initial tumor volume was used to divide the mice into four groups of five mice each, such that the mean tumor size was equal between groups (FIGS. 4A, 5A, and 6A). To allow enough time to observe differences among treatment groups, the mice were followed for the next 5 weeks. One group of mice was then treated biweekly with a sub-maximal concentration of gemcitabine (125 mg per kg body weight by i.p. injection). A second group was treated with a daily injection of cromolyn (5 mg per kg body weight by i.p. injection). A third group was treated with both bi-weekly gemcitabine and daily cromolyn. The control group was treated daily with vehicle. Treatments were continued for 5 weeks, and the effects on the tumor burden and metastasis were analyzed by weekly bioluminescence imaging (FIGS. 4B, 5B, and 6B). At the end of the experiment the mice were anesthetized with 1.5% isofluorane/air mixture and killed by cervical dislocation. Bioluminescence imaging was conducted using a cryogenically cooled IVIS 100 imaging system coupled to a data acquisition computer running Living Image software (Xenogen Corp., Alameda, Calif.). Before imaging, mice were placed in an acrylic chamber, anesthetized with 1.5% isofluorane/air mixture, and injected i.p. with 15 mg/mL of luciferin potassium salt in PBS at a dose of 150 mg per kg body weight. A digital grey scale image of each mouse was acquired, followed by acquisition and overlay of a pseudocolor image representing the spatial distribution of detected photons emerging from active luciferase within the mouse. Tumor volume was quantified as the sum of all detected photons within the region of the tumor per second. At the end of experiment, the mice were killed, and tumors were surgically removed and weighed. After the primary tumors were removed, cancer cell dissemination and metastasis was visualized using IVIS imaging, and metastatic colonies were counted. […]

Compound: O=C(O)c1cc(=O)c2c(OCC(O)COc3cccc4oc(C(=O)O)cc(=O)c34)cccc2o1 [cromolyn, disodium 1,3-bis[(2′-carboxylatochromon-5′-yl)oxy]-2-hydroxypropane]
- liver metastasis (in words) (BxPC-3 tumors): but not liver metastasis
- lung metastasis, difference versus control (BxPC-3 tumors): 3.9×10^8 photons/sec
- lung metastasis, mean (BxPC-3 tumors): 1.6×10^8 photons/sec
- tumor burden, difference versus control (BxPC-3 tumors): 1.2×10^9 photons/sec
- tumor burden, mean (BxPC-3 tumors): 4.4×10^8 photons/sec
- effect on body weight (in words) (BxPC-3 tumors; up to 6 weeks): no effect
- liver or lung metastasis (Panc-1 tumors; Panc-1 model): neither cromolyn nor gemcitabine nor the combination reduced
- tumor development (Panc-1 tumors; Panc-1 model (no S100P), cromolyn 5 mg/kg daily i.p.): did not reduce
- effect on body weight (in words) (Panc-1 tumors; Panc-1 model, up to 6 weeks): no effect

Compound: Nc1ccn([C@@H]2O[C@H](CO)[C@@H](O)C2(F)F)c(=O)n1 [gemcitabine]
- body weight, difference versus control (BxPC-3 tumors): 3.9 g
- lung metastasis, mean (BxPC-3 tumors): 3.9×10^8 photons/sec
- body weight at the end of the experiment, mean (BxPC-3 tumors; control 31.1): 27.2 g
- tumor burden, difference versus control (BxPC-3 tumors): 6.8×10^8 photons/sec
- tumor burden, mean (BxPC-3 tumors): 9.2×10^8 photons/sec
- metastasis in lung or liver compared with control mice (BxPC-3 tumors; treatment alone): did not reduce
- body weight, difference versus control (Panc-1 tumors; Panc-1 model): 4.8 g
- liver or lung metastasis (Panc-1 tumors; Panc-1 model): neither cromolyn nor gemcitabine nor the combination reduced
- body weight at the end of the experiment, mean (Panc-1 tumors; Panc-1 model, control 32.0 g): 27.2 g
